SMILES strings stand for the structures. Like-named read-outs stand apart in the source and are kept apart here.

The text below walks through data of article PMC12391581 (Antiviral Research, 2025).

Experiment [1] has as its system B/Victoria-lineage viruses. Format: cell-based.
The subject of experiment [2] is neuraminidase (NA) of B/Victoria-lineage viruses. The class given is biochemical, influenza B/Victoria-lineage virus.
In experiment [3] the test system is neuraminidase (NA) of A(H3N2) viruses. The conditions noted are these: cited from earlier work.
Experiment [4] relates to neuraminidase (NA) of B/Victoria-lineage viruses. The conditions noted are these: cited from earlier work.

For `COC(=O)OCOc1c2n(ccc1=O)N([C@@H]1c3ccccc3SCc3c1ccc(F)c3F)[C@@H]1COCCN1C2=O` [Baloxavir, baloxavir marboxil], the “EC50 fold-change compared to reference median EC50 values” in experiment [1] is 3.09–7.93 fold.

Regarding `CCOC(=O)C1=C[C@@H](OC(CC)CC)[C@H](NC(C)=O)[C@@H](N)C1` [Oseltamivir, oseltamivir], the “NAI inhibition phenotype (NI/RI/HRI)” value in experiment [2] is listed as “RI (key: normal inhibition (NI) is a <5-fold increase in the NAI IC50; RI is a 5- to 50-fold increase; HRI is a >50-fold increase)”. As for `CC(=O)N[C@H]1[C@H]([C@H](O)[C@H](O)CO)OC(C(=O)O)=C[C@@H]1N=C(N)N` [Zanamivir, zanamivir], the figures for the “NAI inhibition phenotype (NI/RI/HRI)” value in experiment [3], in experiment [4] and in experiment [2] were “NI/RI”, “NI/RI” and “RI (key: normal inhibition (NI) is a <5-fold increase in the NAI IC50; RI is a 5- to 50-fold increase; HRI is a >50-fold increase)”, respectively.
